{"source": "patent EP0872239A2", "about": "(ELI LILLY AND COMPANY, priority 1997, dated 1998)", "key": {"[1]": {"test_system": "muscarinic cholinergic receptor", "test": "pharmacological studies, muscarinic cholinergic receptor activity", "settings": "stated in words only"}, "5-HT1C receptor": {"target": "T1, 5-HT1C receptor (Homo sapiens, UniProt P28335)", "T1 sequence (P28335 33-458)": "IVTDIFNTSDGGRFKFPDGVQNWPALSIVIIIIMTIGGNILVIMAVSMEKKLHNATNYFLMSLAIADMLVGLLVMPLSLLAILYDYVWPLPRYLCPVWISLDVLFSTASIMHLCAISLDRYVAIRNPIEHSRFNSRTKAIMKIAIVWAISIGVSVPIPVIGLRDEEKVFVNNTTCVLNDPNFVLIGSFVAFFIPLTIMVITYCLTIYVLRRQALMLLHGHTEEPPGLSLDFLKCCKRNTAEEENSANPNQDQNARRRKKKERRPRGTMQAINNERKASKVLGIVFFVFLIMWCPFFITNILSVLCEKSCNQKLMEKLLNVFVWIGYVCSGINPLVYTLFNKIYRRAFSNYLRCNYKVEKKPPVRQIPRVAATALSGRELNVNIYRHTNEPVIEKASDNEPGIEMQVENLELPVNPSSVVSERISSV", "test": "pharmacological studies, 5-HT1C receptor activity", "settings": "stated in words only"}, "cerebral focal stroke": {"test_system": "cerebral focal stroke", "test": "experimental stroke / cerebral ischemia models (Assays 2 and 3)", "assay_type": "in vivo, rats", "settings": "general statement on \"such experiments\"; no data given", "method": "The methodology for testing the compound's effect in ameliorating ischemic cell damage after transient middle cerebral artery occlusion (Zhang, et al., Stroke 26, 1438-43, 1995) is given as one example.\nMale rats weighing approximately 300 grams are anesthetized with 3.5% halothane and maintained with 1.0% halothane in 70% N2O and 30% O2 with the use of a face mask. Rectal remperature is maintained at 37°C throughout the surgical procedure. The right femoral artery and vein are cannulated for measuring blood gases before inducing ischemia, monitoring blood pressure during the surgery and administering compound.\nApproximately 18 mm of 4-0 surgical nylon suture with a rounded tip is advanced from the external carotid artery into the lumen of the internal carotid artery until it blocks the origin of the middle cerebral artery (MCA). […] Infarct volume is measured blindly with the use of a Global Lab Image analysis program (Data Translation). The infarct area and the ipsilateral and contralateral hemispheric area are calculated in square millimeters by tracing the right and left hemispheres and the ischemic lesion on the computer screen. The volumes in cubic millimeters are determined by multiplying the area by the section interval thickness. Infarct volume is analyzed as a percentage of the whole hemisphere. […]"}}}
{"compound": "Cc1cc2c(s1)Nc1ccccc1N=C2N1CCN(C)CC1", "note": "[olanzapine, 2-methyl-4-(4-methyl-1-piperazinyl)-10H-thieno [2,3-b] [1,5] benzodiazepine]", "values": [{"measurement": "muscarinic cholinergic receptor activity", "setting": "[1]", "value": "has muscarinic cholinergic receptor activity"}, {"measurement": "active at the 5-HT1C receptor", "setting": "5-HT1C receptor", "value": "active"}, {"measurement": "effect in the treatment or inhibition of cerebral focal stroke", "setting": "cerebral focal stroke", "value": "significant effect"}]}
